Numbers after ± are expanded uncertainties.
Assay: xn = mol fraction of the nth substance listed
Details: 298.15 K, 101 kPa, Liquid, Pycnometric method

SMILES | mass density (x1 = 0.0731) [kg/m3] | mass density (x1 = 0.1555) [kg/m3] | mass density (x1 = 0.2449) [kg/m3] | mass density (x1 = 0.3384) [kg/m3] | mass density (x1 = 0.4321) [kg/m3] | mass density (x1 = 0.5223) [kg/m3] | mass density (x1 = 0.0625) [kg/m3] | mass density (x1 = 0.1347) [kg/m3] | mass density (x1 = 0.2153) [kg/m3] | mass density (x1 = 0.3019) [kg/m3] | mass density (x1 = 0.3915) [kg/m3] | mass density (x1 = 0.4804) [kg/m3] | mass density (x1 = 0.5651) [kg/m3] | mass density (x1 = 0.6428) [kg/m3] | mass density (x1 = 0.7115) [kg/m3] | mass density (x1 = 0.7703) [kg/m3] | mass density (x1 = 0.8195) [kg/m3] | mass density (x1 = 0.8595) [kg/m3] | mass density (x1 = 0.8916) [kg/m3] | mass density (x1 = 0.9244) [kg/m3] | further results
CC(O)CO (centres undefined) [1,2-propanediol] + O | 1016.4 ± 2.7 | 1031.1 ± 2.7 | 1037.7 ± 2.7 | 1039.6 ± 2.7 | 1039.8 ± 2.7 | 1039 ± 2.7 | – | – | – | – | – | – | – | – | – | – | – | – | – | – | mass density (x1 = 0.6058): 1038 ± 2.7 kg/m3; mass density (x1 = 0.6803): 1036.8 ± 2.7 kg/m3; mass density (x1 = 0.7446): 1035.9 ± 2.7 kg/m3; mass density (x1 = 0.7987): 1035 ± 2.7 kg/m3; mass density (x1 = 0.843): 1034.5 ± 2.7 kg/m3; mass density (x1 = 0.8786): 1033.8 ± 2.7 kg/m3; mass density (x1 = 0.9068): 1033.4 ± 2.7 kg/m3; mass density (x1 = 0.9355): 1033.1 ± 2.7 kg/m3
CC(O)C(C)O (centres undefined) [2,3-butanediol] + O | – | – | – | – | – | – | – | – | – | – | – | – | – | – | – | – | – | – | – | – | mass density (x1 = 0.0618): 1014.1 ± 2.7 kg/m3; mass density (x1 = 0.1379): 1021.5 ± 2.7 kg/m3; mass density (x1 = 0.1796): 1023.1 ± 2.7 kg/m3; mass density (x1 = 0.2179): 1023.2 ± 2.7 kg/m3; mass density (x1 = 0.2417): 1022.7 ± 2.7 kg/m3; mass density (x1 = 0.2696): 1022 ± 2.7 kg/m3; mass density (x1 = 0.3027): 1021 ± 2.7 kg/m3; mass density (x1 = 0.3426): 1019.5 ± 2.7 kg/m3; mass density (x1 = 0.3913): 1017.6 ± 2.7 kg/m3; mass density (x1 = 0.4524): 1015.2 ± 2.7 kg/m3; mass density (x1 = 0.5308): 1012.2 ± 2.7 kg/m3; mass density (x1 = 0.6352): 1008.4 ± 2.7 kg/m3; mass density (x1 = 0.7805): 1004.1 ± 2.7 kg/m3; mass density (x1 = 0.9001): 1000.9 ± 2.7 kg/m3
OCCCCO [1,4-butanediol] + O | – | – | – | – | – | – | 1006.6 ± 2.7 | 1015 ± 2.7 | 1019.9 ± 2.7 | 1021.6 ± 2.7 | 1021.7 ± 2.7 | 1021 ± 2.7 | 1020 ± 2.7 | 1018.8 ± 2.7 | 1017.5 ± 2.7 | 1016.6 ± 2.7 | 1015.7 ± 2.7 | 1015.1 ± 2.7 | 1014.7 ± 2.7 | 1014.1 ± 2.7 | –
OCCCO [propan-1,3-diol] + O | 1015.1 ± 2.7 | 1028.5 ± 2.7 | 1038.2 ± 2.8 | 1044.4 ± 2.8 | 1047.9 ± 2.8 | 1049.6 ± 2.8 | – | – | – | – | – | – | – | – | – | – | – | – | – | – | mass density (x1 = 0.6058): 1050.3 ± 2.8 kg/m3; mass density (x1 = 0.6803): 1050.4 ± 2.8 kg/m3; mass density (x1 = 0.7446): 1050.5 ± 2.8 kg/m3; mass density (x1 = 0.7987): 1050.5 ± 2.8 kg/m3; mass density (x1 = 0.843): 1050.4 ± 2.8 kg/m3; mass density (x1 = 0.8786): 1050.4 ± 2.8 kg/m3; mass density (x1 = 0.9068): 1050.2 ± 2.8 kg/m3; mass density (x1 = 0.9355): 1049.9 ± 2.8 kg/m3
CC(O)CCO (centres undefined) [1,3-butanediol] + O | – | – | – | – | – | – | 1008.2 ± 2.7 | 1015.9 ± 2.7 | 1019.2 ± 2.7 | 1018.8 ± 2.7 | 1016.8 ± 2.7 | 1014.4 ± 2.7 | 1012.2 ± 2.7 | 1009.9 ± 2.7 | 1007.9 ± 2.7 | 1006.2 ± 2.7 | 1004.8 ± 2.7 | 1003.8 ± 2.6 | 1003 ± 2.6 | 1002.2 ± 2.6 | –
CCC(O)CO (centres undefined) [1,2-butanediol] + O | – | – | – | – | – | – | 1009.5 ± 2.7 | 1015.8 ± 2.7 | 1016.4 ± 2.7 | 1014.2 ± 2.7 | 1011.6 ± 2.7 | 1009.2 ± 2.7 | 1006.9 ± 2.7 | 1005.2 ± 2.7 | 1003.6 ± 2.7 | 1002.4 ± 2.7 | 1001.4 ± 2.7 | 1000.7 ± 2.7 | 1000.2 ± 2.7 | 999.9 ± 2.7 | –

From the NIST ThermoML archive (doi:10.1016/j.jct.2009.11.018)
